Literature values, collected in Sander's compilation of Henry's law constants (doi:10.1063/1.555654).

Experiment: Henry solubility constant Hcp at 298.15 K (mol/(m3 Pa))
Settings: reference: Mackay and Shiu (1981); cited value

Henry solubility constant Hcp | SMILES
5.3e-06 | CC(C)C(C)C(C)C [2,3,4-trimethylpentane]
0.12 | c1ccc2c(c1)Cc1ccccc1-2 [2,3-benzindene]
7.7e-06 | CC(C)C(C)C [2,3-dimethylbutane]
5.7e-06 | CCC(C)C(C)C (stereo unspecified) [2,3-dimethylpentane]
3.3e-06 | CC(C)CC(C)C [2,4-dimethylpentane]
3.6e-05 | C=C(C)CCC [2-methyl-1-pentene]
7.2e-06 | CCC(C)C [2-methylbutane]
2.9e-06 | CCCCC(C)C [2-methylhexane]
5.9e-06 | CCCC(C)C [2-methylpentane]
8.3e-06 | CC(C)C [2-methylpropane]
5.4e-06 | CCC(C)(C)CC [3,3-dimethylpentane]
1.8e-05 | C=CC(C)C [3-methyl-1-butene]
2.7e-06 | CCCCC(C)CC (stereo unspecified) [3-methylheptane]
4.2e-06 | CCCC(C)CC (stereo unspecified) [3-methylhexane]
5.8e-06 | CCC(C)CC [3-methylpentane]
1.6e-05 | C=CCC(C)C [4-methyl-1-pentene]
1e-06 | CCCCC(C)CCC (stereo unspecified) [4-methyloctane]
0.00083 | CC(C)(C)c1ccccc1 [(1,1-dimethylethyl)-benzene]
0.00071 | CCC(C)c1ccccc1 (stereo unspecified) [(1-methylpropyl)-benzene]
0.0003 | CC(C)Cc1ccccc1 [(2-methylpropyl)-benzene]
0.17 | c1ccc2cc3ccccc3cc2c1 [anthracene]
0.0018 | c1ccccc1 [benzene]
1e-05 | CCCC [butane]
0.005 | CCCl [chloroethane]
2.8e-05 | C[C@@H]1CCCC[C@@H]1C [cis-1,2-dimethylcyclohexane]
5.6e-05 | C1CCCCC1 [cyclohexane]

Henry solubility constant Hcp | SMILES
5.4e-05 | C1CCCC1 [cyclopentane]
1.4e-06 | CCCCCCCCCC [decane]
0.0038 | ClCCl [dichloromethane]
2.7e-06 | CC(C)(C)C [dimethylpropane]
1.3e-06 | CCCCCCCCCCCC [dodecane]
4.6e-05 | C=C [ethene]
0.0013 | CCc1ccccc1 [ethylbenzene]
0.0016 | Fc1ccccc1 [fluorobenzene]
4.3e-06 | CCCCCCC [heptane]
5.9e-06 | CCCCCC [hexane]
0.0077 | Ic1ccccc1 [iodobenzene]
2.5e-05 | CC1CCCCC1 [methylcyclohexane]
2.7e-05 | CC1CCCC1 [methylcyclopentane]
0.023 | c1ccc2ccccc2c1 [naphthalene]
2e-06 | CCCCCCCCC [nonane]
3.3e-06 | CCCCCCCC [octane]
8e-06 | CCCCC [pentane]
0.0017 | CCCCCc1ccccc1 [pentylbenzene]
5.4e-06 | CCCCCC1CCCC1 [pentylcyclopentane]
0.25 | c1ccc2c(c1)ccc1ccccc12 [phenanthrene]
4.7e-05 | C=CC [propene]
0.0014 | CCCc1ccccc1 [propylbenzene]
0.0009 | C#CC [propyne]
1.1e-05 | C[C@H]1CC[C@H](C)CC1 [trans-1,4-dimethylcyclohexane]
2.4e-05 | C/C=C/CCCC [trans-2-heptene]

Second part, the compound before the results:

SMILES | Henry solubility constant Hcp
ClCC(Cl)(Cl)Cl [1,1,1,2-tetrachloroethane] | 0.0036
Clc1ccc(C(c2ccc(Cl)cc2)C(Cl)(Cl)Cl)cc1 [1,1,1-trichloro-2,2-bis-(4-chlorophenyl)-ethane] | 0.19
CC(Cl)(Cl)Cl [1,1,1-trichloroethane] | 0.00036
ClC(Cl)C(Cl)Cl [1,1,2,2-tetrachloroethane] | 0.021
ClCC(Cl)Cl [1,1,2-trichloroethane] | 0.0083
CC1CCC(C)(C)C1 (stereo unspecified) [1,1,3-trimethylcyclopentane] | 6.3e-06
Cc1cccc(C)c1C [1,2,3-trimethylbenzene] | 0.0031
Cc1ccc(C)c(C)c1 [1,2,4-trimethylbenzene] | 0.0017
Cc1ccccc1C [1,2-dimethylbenzene] | 0.002
Cc1cc(C)cc(C)c1 [1,3,5-trimethylbenzene] | 0.0017
C=CC=C [1,3-butadiene] | 0.00013
Clc1cccc(Cl)c1 [1,3-dichlorobenzene] | 0.0028
Cc1cccc(C)c1 [1,3-dimethylbenzene] | 0.0014
Clc1ccc(Cl)cc1 [1,4-dichlorobenzene] | 0.0063
Cc1ccc(C)cc1 [1,4-dimethylbenzene] | 0.0014
C#CCC [1-butyne] | 0.00052
CC(C)CCl [1-chloro-2-methylpropane] | 0.0083
CCc1ccc(C)cc1 [1-ethyl-4-methylbenzene] | 0.002
CCc1cccc2ccccc12 [1-ethylnaphthalene] | 0.026
Cc1ccc(C(C)C)cc1 [1-methyl-4-(1-methylethyl)-benzene] | 0.0013
Cc1cccc2ccccc12 [1-methylnaphthalene] | 0.022
C=CCCCCCC [1-octene] | 1e-05
C=CCCC [1-pentene] | 2.5e-05
CC(C)CC(C)(C)C [2,2,4-trimethylpentane] | 3e-06
CC(C)CCC(C)(C)C [2,2,5-trimethylhexane] | 2.9e-06

SMILES | Henry solubility constant Hcp
CCC(C)(C)C [2,2-dimethylbutane] | 5.8e-06
CCCC(C)(C)C [2,2-dimethylpentane] | 3.1e-06
C=C(Cl)CCl [2,3-dichloropropene] | 0.0028
CCc1ccc2ccccc2c1 [2-ethylnaphthalene] | 0.012
C=CC(=C)C [2-methyl-1,3-butadiene] | 0.00013
C=CCCl [3-chloro-1-propene] | 0.00091
c1cc2c3c(cccc3c1)CC2 [acenaphthene] | 0.042
ClC1=C(Cl)[C@]2(Cl)[C@H]3[C@H]([C@@H]4C=C[C@H]3C4)[C@@]1(Cl)C2(Cl)Cl [aldrin] | 0.36
c1ccc2c(c1)-c1cccc3cccc-2c13 [benzo[jk]fluorene] | 0.0045
c1ccc(-c2ccccc2)cc1 [biphenyl] | 0.036
Brc1ccccc1 [bromobenzene] | 0.0048
CCCCc1ccccc1 [butylbenzene] | 0.00077
Clc1ccccc1 [chlorobenzene] | 0.0029
Cl/C=C\CCl [cis-1,3-dichloropropene] | 0.0042
BrCBr [dibromomethane] | 0.031
ClC1=C(Cl)[C@]2(Cl)[C@@H]3[C@@H]4C[C@@H]([C@H]5O[C@@H]45)[C@@H]3[C@@]1(Cl)C2(Cl)Cl [dieldrin] | 0.91
COP(=S)(Oc1cc(Cl)c(Br)cc1Cl)c1ccccc1 (stereo unspecified) [leptophos] | 3.7
Cc1ccccc1 [methylbenzene] | 0.0015
COP(=S)(OC)Oc1ccc([N+](=O)[O-])cc1 [methylparathion] | 50
ClC(Cl)C(Cl)(Cl)Cl [pentachloroethane] | 0.0045
ClC(Cl)=C(Cl)Cl [tetrachloroethene] | 0.00043
ClC(Cl)(Cl)Cl [tetrachloromethane] | 0.0005
Cl/C=C/CCl [trans-1,3-dichloropropene] | 0.0056
BrC(Br)Br [tribromomethane] | 0.016
ClC1C(Cl)C(Cl)C(Cl)C(Cl)C1Cl (stereo unspecified) [γ-1,2,3,4,5,6-hexachlorocyclohexane] | 3.1
